In patent US8822468B2 (Novartis AG, priority 2008, dated 2014):

Target: T1, cMET receptor tyrosine kinase (GST-cMET (969-1390)) (Homo sapiens, UniProt P08581)
T1 construct: made in house
Test: EPK cMET profiling assay (LanthaScreen TR-FRET antibody based kinase phosphorylation assay)
Format: biochemical
Conditions: purified recombinant GST-cMET (969-1390), 2 μM ATP, 50 nM Fluorescein-PolyEAY, 60 minutes at room temperature; read-out: c-Met IC50
Procedure: A number of compounds of the present invention were assayed in an antibody based kinase phosphorylation assay as follows.
EPK cMET Profiling Assay:
The EPK kinase assay for cMET receptor tyrosine kinase was developed, using the purified recombinant GST-fusion protein, containing the cytoplasmic domain of the enzyme. GST-cMET (969-1390) was purified by affinity chromatography.
The kinase assay is based on the LanthaScreen™ technology. LanthaScreen™ is the detection of Time-Resolved Fluorescence Resonance Energy Transfer (TR-FRET) using lanthanide chelates to measure interactions between various binding partners. In a TR-FRET kinase assay, a long-lifetime lanthanide donor species is conjugated to an antibody that specifically binds to a phosphorylated product of a kinase reaction that is labeled with a suitable acceptor fluorophore. This antibody-mediated interaction brings the lanthanide donor and the acceptor into proximity such that resonance energy transfer can take place, resulting in a detectible increase in the FRET signal.
The kinase reactions were performed in 384 well microtiter plates in a total reaction volume of 9.05 μL. The assay plates were prepared with 0.05 μL per well of test compound in the appropriate test concentration, as described under “preparation of compound dilutions”. The reactions were started by combining 4.5 μL of ATP solution with 4.5 μL of enzyme-substrate mix (consisting of kinase and substrate). The final concentrations in the kinase reactions were 35 mM Tris/HCl, 1 mM DTT, 0.025% Tween20, 10 μM sodium orthovanadate, 0.25% BSA, 0.6% DMSO, 10 mM MgCl2, 3 mM MnCl2, 2 μM ATP, 50 nM Fluorescein-PolyEAY, and 0.3 nM enzyme.
The reactions were incubated for 60 minutes at room temperature and stopped by adding 4.5 μL of stop buffer (50 mM EDTA, 0.04% NP40, 20 mM Tris/HCl).
Subsequently 4.5 μL of detection mix (50 mM Tris/HCl, 2 mM DTT, 0.05% Tween20, 20 μM sodium orthovanadate, 1% BSA, 1.72 μg/ml Tb-PY20 antibody) were added to the stopped reactions. After 30 minutes incubation at room temperature, the plates were measured in a BMG Pherastar fluorescence reader. The effect of compound on the enzymatic activity was in all assays obtained from the linear progress curves and determined from one reading (end point measurement).
Test compounds were dissolved in DMSO (10 mM) and transferred into 1.4 mL flat bottom or V-shaped Matrix tubes carrying a unique 2D matrix. The stock solutions were stored at −20° C. if not used immediately. For the test procedure the vials were defrosted and identified by a scanner whereby a working sheet was generated that guided the subsequent working steps.
Compound dilutions were made in 96 well plates. This format enabled the assay of maximally 40 individual test compounds at 8 concentrations (single points) including 4 reference compounds. The dilution protocol included the production of “pre-dilution plates”, “master plates” and “assay plates”.
Pre-dilution plates: 96 polypropylene well plates were used as pre-dilution plates. A total of 4 pre-dilution plates were prepared including 10 test compounds each on the plate positions A1-A10, one standard compound at A11 and one DMSO control at A12. All dilution steps were done on a HamiltonSTAR robot.
Master plates: 100 μL of individual compound dilutions including standard compound and controls of the 4 “pre-dilution plates” were transferred into a 384 “master plate” including the following concentrations 1,820, […], 182, 54.6, 18.2, 5.46, 1.82 and 0.546 μM, respectively in 90% of DMSO.
Assay plates: Identical “assay plates” were then prepared by pipetting 50 nL each of compound dilutions of the “master plates” into 384-well “assay plates” by means of a HummingBird 384-channel dispenser. These plates were used directly for the assay which was performed in a total volume of 9.05 μL. This led to a final compound concentration of 10, 3.0, 1.0, 0.3, 0.1, 0.03, 0.01 and 0.003 μM and a final DMSO concentration of 0.5% in the assay.

T1 sequence (P08581 969-1390): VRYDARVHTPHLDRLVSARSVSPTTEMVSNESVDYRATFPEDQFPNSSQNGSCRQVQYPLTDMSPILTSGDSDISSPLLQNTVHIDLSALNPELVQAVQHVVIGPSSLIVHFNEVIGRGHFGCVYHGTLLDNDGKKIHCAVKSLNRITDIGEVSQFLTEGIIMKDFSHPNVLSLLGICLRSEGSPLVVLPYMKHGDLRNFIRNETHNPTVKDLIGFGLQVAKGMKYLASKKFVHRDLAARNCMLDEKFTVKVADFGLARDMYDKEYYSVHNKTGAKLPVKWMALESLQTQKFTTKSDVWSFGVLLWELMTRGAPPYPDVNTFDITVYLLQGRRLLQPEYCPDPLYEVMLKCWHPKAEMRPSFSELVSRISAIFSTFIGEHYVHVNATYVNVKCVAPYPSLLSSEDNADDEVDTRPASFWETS

Structure (SMILES) | IC50
Brc1ccc(-c2ccc3ncc(Cc4ccc5ncccc5c4)n3n2)cc1 [Example 19, 6-[6-(4-Bromo-phenyl)-imidazo[1,2-b]pyridazin-3-ylmethyl]-quinoline] | 215 nM
Nc1cccc(-c2ccc3ncc(Cc4ccc5ncccc5c4)n3n2)c1 [Example 20, 3-(3-Quinolin-6-ylmethyl-imidazo[1,2-b]pyridazin-6-yl)-phenylamine] | 60 nM
CC(=O)c1ccc(-c2ccc3ncc(Cc4ccc5ncccc5c4)n3n2)cc1 [Example 21, 1-[4-(3-Quinolin-6-ylmethyl-imidazo[1,2-b]pyridazin-6-yl)-phenyl]-ethanone] | 27.5 nM
O=[N+]([O-])c1cccc(-c2ccc3ncc(Cc4ccc5ncccc5c4)n3n2)c1 [Example 22, 6-[6-(3-Nitro-phenyl)-imidazo[1,2-b]pyridazin-3-ylmethyl]-quinoline] | 7.4 nM
CSc1ccc(-c2ccc3ncc(Cc4ccc5ncccc5c4)n3n2)cc1 [Example 23, 6-[6-(4-Methylsulfanyl-phenyl)-imidazo[1,2-b]pyridazin-3-ylmethyl]-quinoline] | 125 nM
O=Cc1cccc(-c2ccc3ncc(Cc4ccc5ncccc5c4)n3n2)c1 [Example 24, 3-(3-Quinolin-6-ylmethyl-imidazo[1,2-b]pyridazin-6-yl)-benzaldehyde] | 23.5 nM
Fc1ccc(-c2ccc3ncc(Cc4ccc5ncccc5c4)n3n2)cc1 [Example 25, 6-[6-(4-Fluoro-phenyl)-imidazo[1,2-b]pyridazin-3-ylmethyl]-quinoline] | 48 nM
N#Cc1cccc(-c2ccc3ncc(Cc4ccc5ncccc5c4)n3n2)c1 [Example 26, 3-(3-Quinolin-6-ylmethyl-imidazo[1,2-b]pyridazin-6-yl)-benzonitrile] | 20 nM
Clc1ccc(-c2ccc3ncc(Cc4ccc5ncccc5c4)n3n2)cc1 [Example 27, 6-[6-(4-Chloro-phenyl)-imidazo[1,2-b]pyridazin-3-ylmethyl]-quinoline] | 110 nM
CC(=O)Nc1cccc(-c2ccc3ncc(Cc4ccc5ncccc5c4)n3n2)c1 [Example 28, N-[3-(3-Quinolin-6-ylmethyl-imidazo[1,2-b]pyridazin-6-yl)-phenyl]-acetamide] | 240 nM
c1cncc(-c2ccc3ncc(Cc4ccc5ncccc5c4)n3n2)c1 [Example 29, 6-(6-Pyridin-3-yl-imidazo[1,2-b]pyridazin-3-ylmethyl)-quinoline] | 40 nM
c1ccc(-c2ccc3ncc(Cc4ccc5ncccc5c4)n3n2)cc1 [Example 30, 6-(6-Phenyl-imidazo[1,2-b]pyridazin-3-ylmethyl)-quinoline] | 91 nM
c1cnc2ccc(Cc3cnc4ccc(-c5cc6ccccc6o5)nn34)cc2c1 [Example 31, 6-(6-Benzofuran-2-yl-imidazo[1,2-b]pyridazin-3-ylmethyl)-quinoline] | 230 nM
FC(F)(F)c1ccc(-c2ccc3ncc(Cc4ccc5ncccc5c4)n3n2)cc1 [Example 33, 6-[6-(4-Trifluoromethyl-phenyl)-imidazo[1,2-b]pyridazin-3-ylmethyl]-quinoline] | 370 nM
c1ccc(-c2cc(-c3ccc4ncc(Cc5ccc6ncccc6c5)n4n3)on2)cc1 [Example 34, 6-[6-(3-Phenyl-isoxazol-5-yl)-imidazo[1,2-b]pyridazin-3-ylmethyl]-quinoline] | 230 nM
COc1ccc(-c2ccc3ncc(Cc4ccc5ncccc5c4)n3n2)cc1 [Example 35, 6-[6-(4-Methoxy-phenyl)-imidazo[1,2-b]pyridazin-3-ylmethyl]-quinoline] | 79 nM
CN(C)c1cccc(-c2ccc3ncc(Cc4ccc5ncccc5c4)n3n2)c1 [Example 36, Dimethyl-[3-(3-quinolin-6-ylmethyl-imidazo[1,2-b]pyridazin-6-yl)-phenyl]-amine] | 65 nM

Structure (SMILES) | IC50
Cn1ccc2cc(-c3ccc4ncc(Cc5ccc6ncccc6c5)n4n3)ccc21 [Example 37, 6-[6-(1-Methyl-1H-indol-5-yl)-imidazo[1,2-b]pyridazin-3-ylmethyl]-quinoline] | 30 nM
c1cnc2ccc(Cc3cnc4ccc(-c5cc6ccccc6s5)nn34)cc2c1 [Example 38, 6-(6-Benzo[b]thiophen-2-yl-imidazo[1,2-b]pyridazin-3-ylmethyl)-quinoline] | 39 nM
c1cnc2ccc(Cc3cnc4ccc(-c5cnc6ccccc6c5)nn34)cc2c1 [Example 39, 6-(6-Quinolin-3-yl-imidazo[1,2-b]pyridazin-3-ylmethyl)-quinoline] | 72 nM
COc1ccc2cc(-c3ccc4ncc(Cc5ccc6ncccc6c5)n4n3)ccc2c1 [Example 40, 6-[6-(6-Methoxy-naphthalen-2-yl)-imidazo[1,2-b]pyridazin-3-ylmethyl]-quinoline] | 130 nM
Clc1ccc(-c2ccc3ncc(Cc4ccc5ncccc5c4)n3n2)s1 [Example 41, 6-[6-(5-Chloro-thiophen-2-yl)-imidazo[1,2-b]pyridazin-3-ylmethyl]-quinoline] | 56 nM
c1cnc2ccc(Cc3cnc4ccc(-c5cncc6ccccc56)nn34)cc2c1 [Example 42, 6-(6-Isoquinolin-4-yl-imidazo[1,2-b]pyridazin-3-ylmethyl)-quinoline] | 450 nM
FC(F)(F)Oc1ccc(-c2ccc3ncc(Cc4ccc5ncccc5c4)n3n2)cc1 [Example 43, 6-[6-(4-Trifluoromethoxy-phenyl)-imidazo[1,2-b]pyridazin-3-ylmethyl]-quinoline] | 350 nM
c1cnc2ccc(Cc3cnc4ccc(-c5ccc6[nH]ccc6c5)nn34)cc2c1 [Example 45, 6-[6-(1H-Indol-5-yl)-imidazo[1,2-b]pyridazin-3-ylmethyl]-quinoline] | 100 nM
CCCn1cc(-c2ccc3ncc(Cc4ccc5ncccc5c4)n3n2)cn1 [Example 46, 6-[6-(1-Propyl-1H-pyrazol-4-yl)-imidazo[1,2-b]pyridazin-3-ylmethyl]-quinoline] | 57 nM
Clc1ccc(-c2ccc3ncc(Cc4ccc5ncccc5c4)n3n2)cn1 [Example 47, 6-[6-(6-Chloro-pyridin-3-yl)-imidazo[1,2-b]pyridazin-3-ylmethyl]-quinoline] | 100 nM
Clc1ccc(-c2ccc(-c3ccc4ncc(Cc5ccc6ncccc6c5)n4n3)cn2)cn1 [Example 48, 6′-Chloro-5-(3-quinolin-6-ylmethyl-imidazo[1,2-b]pyridazin-6-yl)-[2,3′]bipyridinyl] | 190 nM
Clc1cc(-c2ccc3ncc(Cc4ccc5ncccc5c4)n3n2)ccn1 [Example 49, 6-[6-(2-Chloro-pyridin-4-yl)-imidazo[1,2-b]pyridazin-3-ylmethyl]-quinoline] | 23 nM
Clc1cc(-c2cc(-c3ccc4ncc(Cc5ccc6ncccc6c5)n4n3)ccn2)ccn1 [Example 50, 2′-Chloro-4-(3-quinolin-6-ylmethyl-imidazo[1,2-b]pyridazin-6-yl)-[2,4′]bipyridinyl] | 950 nM
c1cnc2ccc(Cc3cnc4ccc(-c5ccc6c(c5)OCO6)nn34)cc2c1 [Example 51, 6-(6-Benzo[1,3]dioxol-5-yl-imidazo[1,2-b]pyridazin-3-ylmethyl)-quinoline] | 95 nM
c1cnc2ccc(Cc3cnc4ccc(-c5ccc6nonc6c5)nn34)cc2c1 [Example 52, 6-(6-Benzo[1,2,5]oxadiazol-5-yl-imidazo[1,2-b]pyridazin-3-ylmethyl)-quinoline] | 240 nM
Clc1cccc(-c2ccc3ncc(Cc4ccc5ncccc5c4)n3n2)c1 [Example 53, 6-[6-(3-Chloro-phenyl)-imidazo[1,2-b]pyridazin-3-ylmethyl]-quinoline] | 110 nM
